Source: patent publication US12508270B2, “Treatment of behavioral impairment in developmental and epileptic encephalopathy” (Harmony Biosciences Management, Inc., priority 2019, dated 2025)

System: child and adolescent epilepsy patients with developmental and epileptic encephalopathies (DEE)
Assay: Qualitative caregiver feedback at Week 26
Format: in vivo, human
Settings: transdermal CBD
Source text: Qualitative assessment of improvement, worsening, or no change for the patient and family, such as but not limited to, daily activities, school attendance and alertness. In the examples, clinicians were asked to capture qualitative caregiver feedback at Week 26 with the following questions asked: (1) “Has anything improved for [patient name] and your family since [patient name] has been using the gel?”; (2) “Has anything got worse since for [patient name] and your family since [patient name] has been using the gel?”; and (3) “Let me just ask about a few specific things: Daily activities e.g. school attendance? If so how? Alertness? If so how?”.
Parents/caregivers were instructed to capture seizure frequency and type, and skin irritation scores, within daily diaries. Parents/caregivers also completed: • (1) The University of Washington Caregiver Stress Scale at Day 1, Week 14, and Week 26. • (2) Epilepsy and Learning Disabilities Quality of Life scale (ELDQOL—modified) at Day 1, Week 14 and Week 26. • (3) Sleep Disturbance Scale for Children (SDSC) at Day 1, Week 14 and Week 26. • (4) Vineland Adaptive Behavior Scale-3 (VABS-3) at Day 1 and Week 26. • (5) Parents/caregivers also completed a daily Likert-type “good day/bad day” questionnaire. • (6) Qualitative Caregiver Feedback at Week 26. Objectives […]

C=C(C)C1CCC(C)=CC1c1c(O)cc(CCCCC)cc1O (stereo not shown) [CBD, 2-[3-methyl-6-(1-methylethenyl)-2-cyclohexen-1-yl]-5-pentyl-1,3-benzenediol]
qualitative assessments by caregivers: improved many behavioral problems
